{
  "source": "paper PMC7274539",
  "about": "“The selective glucocorticoid receptor antagonist CORT125281 has tissue-specific activity” (The Journal of Endocrinology, 2020)",
  "key": {"male C57Bl/6J mice": {"test_system": "male C57Bl/6J mice", "test": "Body weight, food intake and immune cell counts under CORT125281 via the diet", "type": "in vivo", "conditions": "for body weight / food intake: 6 days", "experimental": "(§1) All studies involving animals were approved by the institutional ethics committee on animal care and experimentation at the Leiden University Medical Center. The 8-week old male C57Bl/6J mice (Charles River) were housed in ventilated cages with a 12 h light:12 h darkness regime and ad libitum access to food and water. In the acute corticosterone exposure experiments, mice received a synthetic chow diet (Research Diets, New Brunswick, NJ, USA) containing vehicle or CORT125281 (6, 20 or 60 mg/kg/day, Corcept Therapeutics, Menlo Park, CA, USA) for 6 days. […] Mice were treated daily with vehicle, 60 mg/kg mifepristone (Corcept Therapeutics) or 60 mg/kg CORT125281 (dissolved in PBS with 0.1% Tween 80 and 0.5% hydroxypropylmethylcellullose, Corcept Therapeutics) via oral gavage for 5 days, after which mice were killed by CO2 inhalation. Throughout the experiment, body weight was monitored and body composition was determined with EchoMRI™ (Frankfurt, Germany). After 5 days, blood was collected from the lateral tail vain in paraoxon-coated capillaries after a 6-h fast. Plasma triglyceride, total cholesterol, free fatty acid, glucose and insulin levels were determined using commercially available kits (Roche; Instruchemie, Delfzijl, Netherlands and Crystal Chem, Zaandam, Netherlands). Blood concentrations of the major leukocyte classes, that is, lymphocytes, monocytes and eosinophils, were determined in whole blood using an automatic veterinary hematology analysis (Sysmex XT-2000iV; Goffin Meyvis, Etten-Leur, the Netherlands)."}, "[1]": {"test_system": "hypothalamus-pituitary-adrenal (HPA)-axis activity", "test": "Basal and novelty stress-induced HPA-axis activity (ACTH, corticosterone, pituitary Pomc, adrenal weight)", "type": "in vivo, C57Bl/6J mice", "experimental": "as §1\nIn both acute and subchronic corticosterone experiments, relevant tissues (including quadriceps muscle, interscapular BAT, gonadal white adipose tissue (WAT), adrenals, spleen, thymus, pituitary and hippocampus) were collected to determine tissue weight and/or for further molecular analysis.\nNovelty stress tests were performed in the morning (between 08:00–12:00 h) after 2 days of exposure to CORT125281. At t = 0, a blood sample was collected, after which mice were placed in a novel cage without bedding. After 10 min, a second blood sample was collected and mice were placed back in their original home cage.\nFor dual label in situ hybridization, frozen unfixed pituitaries were embedded in tissue-tek OCT (Sakura Finetek, Alphen aan den Rijn, Netherlands), sliced (12 µm) and collected on glass slides (Superfrost Plus, Thermo Fisher Scientific). Dual label in situ hybridization was performed using the QuantiGene ViewRNA ISH Tissue 2-Plex Assay (Thermo Fisher Scientific) and pictures were captured with a wide-field microscope (DM6B, Leica Microsystems). For 4-plex in situ hybridization, frozen, unfixed brain slices (12 µm) were collected on glass slides at bregma −0.772 mm (PVN) and −1.532 mm (hippocampus). 4-plex in situ hybridization was performed using the RNAScope fluorescent multiplex assay and RNAscope 4-plex ancillary kit (Advanced Cell Diagnostics, Newark, CA, USA) and Opal fluorophores 520, 570, 620 and 690 (PerkinElmer). Pictures were captured with a confocal microscope (SP8 WLL, Leica Microsystems). All pictures were analysed with ImageJ Software (NIH)."}, "GR [2]": {"test_system": "GR", "conditions": "ref Kroon et al. 2018; cited from earlier work"}, "GR [3]": {"test_system": "GR", "set-up": "method as in Lahteenmaki et al. 1987, Kroon et al. 2018", "conditions": "half maximal inhibitory concentration of the GR antagonist; ref Lahteenmaki et al. 1987, Kroon et al. 2018; cited from earlier work"}, "[4]": {"test": "Quantification of serum and tissue CORT125281 concentration by LC-MS", "type": "in vivo, C57Bl/6J mice", "conditions": "male, C57Bl/6J, mouse, oral, 60 mg/kg/day for 6 days, mice", "experimental": "as §1\nCompound levels were assessed against standard curves for CORT125281, ranging from 0.05–20 µM in each tissue. Tissues were weighed and water was added at three-fold the weight of each individual sample before homogenising. Internal standard (90 µL of 1 µM leucine enkephalin in acetonitrile) was added to all samples, standard curves and quality control spikes of CORT125281. After centrifugation, a fixed volume of supernatant was removed and pellets were dissolved in water. The samples were then analysed by LC-MS utilising a QTRAP 5500 mass spectrometer (Sciex, Warrington, UK), UPLC (Agilent) instrument, equipped with a C18 Cortecs UPLC analytical column (2.1 × 30 mm, […]). […] The gradient started with a mobile phase composition of 5% B which was held for 0.1 min. The percentage of B was then linearly ramped to 95% over 0.1 to 1.2 min and then held constant up to 1.3 min. […] The mass spectrometer was set to operate in negative ion mode. The ion source temperature was 650°C, the ion spray voltage was −4000 V, gases 1, 2 and curtain gas were 30 V, 60 V and 35 V, respectively, and the entrance and collisition exit potential were −10 V and −13 V. The collision energy and declustering potential used for the multiple reaction monitoring (MRM) transitions of CORT125281 were −28 V and −60 V, the Q1 and Q3 masses were 588.649 Da and 248.800 Da, while the collision energy and declustering potential for the internal standard were −40 V and 0 V and the Q1 and Q3 masses 554.2 Da and 235.9 Da."}, "HPA-axis activity": {"test_system": "HPA-axis activity", "set-up": "method as in Kroon et al. 2018", "conditions": "ref Kroon et al. 2018; cited from earlier work"}},
  "note": "Read-outs that look alike come from different tables or passages of the source.",
  "data": [
    {"smiles": "Cn1ncc(S(=O)(=O)N2CC[C@H]3Cc4c(cnn4-c4ccc(F)cc4)C[C@]3(C(=O)c3cc(C(F)(F)F)ccn3)C2)n1", "note": "[CORT125281]", "values": [
      {"measurement": "immune counts (WBC, lymphocytes, monocytes, eosinophils)", "setting": "male C57Bl/6J mice; 60 mg/kg/day via diet 6 days, without excess corticosterone exposure", "value": "did not alter"},
      {"measurement": "body weight", "setting": "male C57Bl/6J mice; 60 mg/kg/day via food", "value": "did not alter"},
      {"measurement": "food intake", "setting": "male C57Bl/6J mice; 60 mg/kg/day via food", "value": "did not alter"},
      {"measurement": "body weight", "setting": "male C57Bl/6J mice; 6 and 20 mg/kg/day via food", "value": "did not alter"},
      {"measurement": "food intake", "setting": "male C57Bl/6J mice; 6 and 20 mg/kg/day via food", "value": "did not alter"},
      {"measurement": "adrenal weights", "setting": "[1]; 60 mg/kg/day", "value": "did not alter"},
      {"measurement": "peak and trough corticosterone levels", "setting": "[1]; 60 mg/kg/day", "value": "did not alter"},
      {"measurement": "peak novelty stress-induced corticosterone levels", "setting": "[1]; 60 mg/kg/day", "value": "slightly attenuated"},
      {"measurement": "slope of corticosterone during the recovery phase (t = 30 to 120 min)", "setting": "[1]; 60 mg/kg/day, novelty stress", "value": "unaltered"},
      {"measurement": "GR (Nr3c1) mRNA expression in the anterior pituitary", "setting": "[1]; 6-20 mg/kg/day", "value": "increased"},
      {"measurement": "expression of pro-opiomelanocortin (Pomc) in the anterior pituitary", "setting": "[1]; 6-20 mg/kg/day", "value": "unaltered"},
      {"measurement": "weight of adrenals", "setting": "[1]; 6-20 mg/kg/day", "value": "unaltered"},
      {"measurement": "basal peak or trough corticosterone levels", "setting": "[1]; 6-20 mg/kg/day, 08:00 h and 18:00 h", "value": "did not alter"},
      {"measurement": "corticosterone levels after novelty stress", "setting": "[1]; 6 and 20 mg/kg/day vs vehicle, all measured time points, day 2", "value": "similar"},
      {"measurement": "circulating levels of ACTH", "setting": "[1]; 6 and 20 mg/kg/day, 18:00 on day 4", "value": "unchanged"},
      {"measurement": "partial agonism at GR in reporter assays", "setting": "GR [2]", "value": "very low partial agonism"},
      {"measurement": "IC50", "setting": "GR [3]", "value": 427, "unit": "nM"},
      {"measurement": "Kp at 6 days", "setting": "[4]; BAT (brown adipose tissue) relative to plasma, read-out: tissue to plasma ratio, BAT", "value": 19.1},
      {"measurement": "concentration at 6 days", "setting": "[4]; BAT (brown adipose tissue), BAT, read-out: CORT125281 level, BAT", "value": 4720, "unit": "ng/g"},
      {"measurement": "Kp at 6 days", "setting": "[4]; WAT (white adipose tissue) relative to plasma, read-out: tissue to plasma ratio, WAT", "value": 46.7},
      {"measurement": "Kp at 6 days", "setting": "[4]; brain (neocortex) relative to plasma, neocortex, read-out: tissue to plasma ratio, brain", "value": 1.8},
      {"measurement": "concentration at 6 days", "setting": "[4]; gonadal WAT (white adipose tissue), gonadal WAT, read-out: CORT125281 level, WAT", "value": 12500, "unit": "ng/g"},
      {"measurement": "Kp at 6 days", "setting": "[4]; liver relative to plasma, read-out: tissue to plasma ratio, liver", "value": 8},
      {"measurement": "concentration at 6 days", "setting": "[4]; brain neocortex, read-out: CORT125281 level, brain", "value": 542, "unit": "ng/g"},
      {"measurement": "concentration at 6 days", "setting": "[4]; liver, read-out: CORT125281 level, liver", "value": 2040, "unit": "ng/g"},
      {"measurement": "concentration at 6 days", "setting": "[4]; plasma, read-out: CORT125281 level, plasma", "value": 419, "unit": "ng/g"},
      {"measurement": "diurnal corticosterone rhythm flattened by high-fat diet", "setting": "HPA-axis activity", "value": "restored"}
    ]}
  ]
}
